Laboratory results reported in US20160050923A1, “N-SUBSTITUTED ACYL-IMINO-PYRIDINE COMPOUNDS AND DERIVATIVES FOR COMBATING ANIMAL PESTS” (BASF SE, priority 2013, published 2016).

Tests used:
Assay type in all cases: in vivo
[1] = test system: Nephotettix virescens; experiment: Rice green leafhopper (Nephotettix virescens) test on sprayed rice seedlings; conditions: 72 h, read-out: mortality in comparison with untreated controls
Description: B.7 Rice Green Leafhopper (Nephotettix virescens)
(§1) Rice seedlings were cleaned and washed 24 hours before spraying. The active compounds were formulated in 50:50 acetone:water (vol:vol), and 0.1% vol/vol surfactant (EL 620) was added. Potted rice seedlings were sprayed with 5 ml test solution, air dried, placed in cages and inoculated with 10 adults. Treated rice plants were kept at about 28-29° C. and relative humidity of about 50-60%. Percent mortality was recorded after 72 hours.

[2] = test system: Myzus persicae; experiment: Green peach aphid (Myzus persicae) spray test on infested bell pepper plants; conditions: 120 h, read-out: mortality in comparison with untreated controls
Description: B.1 Green Peach Aphid (Myzus persicae)
The active compounds were formulated by a Tecan liquid handler in 100% cyclohexanone as a 10,000 ppm solution supplied in tubes. The 10,000 ppm solution was serially diluted in 100% cyclohexanone to make interim solutions. These served as stock solutions for which final dilutions were made by the Tecan in 50% acetone:50% water (v/v) into 5 or 10 ml glass vials. A nonionic surfactant (Kinetic®) was included in the solution at a volume of 0.01% (v/v). The vials were then inserted into an automated electrostatic sprayer equipped with an atomizing nozzle for application to plants/insects.
Bell pepper plants at the first true-leaf stage were infested prior to treatment by placing heavily infested leaves from the main colony on top of the treatment plants. Aphids were allowed to transfer overnight to accomplish an infestation of 30-50 aphids per plant and the host leaves were removed. The infested plants were then sprayed by an automated electrostatic plant sprayer equipped with an atomizing spray nozzle. The plants were dried in the sprayer fume hood, removed, and then maintained in a growth room under fluorescent lighting in a 24-hr photoperiod at about 25° C. and about 20-40% relative humidity. Aphid mortality on the treated plants, relative to mortality on untreated control plants, was determined after 5 days.

[3] = test system: Megoura viciae; experiment: Vetch aphid (Megoura viciae) broad bean leaf disk microtiter test; conditions: foliar, 120 h, read-out: mortality in comparison with untreated controls
Description: B.2 Vetch Aphid (Megoura viciae)
For evaluating control of vetch aphid (Megoura viciae) through contact or systemic means the test unit consisted of 24-well-microtiter plates containing broad bean leaf disks.
The compounds were formulated using a solution containing 75% v/v water and 25% v/v DMSO. Different concentrations of formulated compounds were sprayed onto the leaf disks at 2.5 μl, using a custom built micro atomizer, at two replications.
After application, the leaf disks were air-dried and 5-8 adult aphids were placed on the leaf disks inside the microtiter plate wells. The aphids were then allowed to suck on the treated leaf disks and were incubated at about 23±1° C. and about 50±5% relative humidity for 5 days. Aphid mortality and fecundity was then visually assessed.

[4] = test system: Aphis craccivora; experiment: Cowpea aphid (Aphis craccivora) spray test on potted cowpea plants; conditions: 72 h, read-out: mortality in comparison with untreated controls
Description: B.4 Cowpea Aphid (Aphis craccivora)
The active compound was dissolved at the desired concentration in a mixture of 1:1 (vol:vol) distilled water: acetone. Surfactant (Alkamuls® EL 620) was added at a rate of 0.1% (vol/vol). The test solution was prepared at the day of use.
Potted cowpea plants were colonized with approximately 50-100 aphids of various stages by manually transferring a leaf tissue cut from infested plant 24 hours before application. Plants were sprayed after the pest population has been recorded. Treated plants were maintained on light carts at about 28° C. Percent mortality was assessed after 72 hours.

[5] = test system: Nilaparvata lugens; experiment: Rice brown plant hopper (Nilaparvata lugens) test on sprayed rice seedlings; conditions: 72 h, read-out: mortality in comparison with untreated controls
Description: B.8 Rice Brown Plant Hopper (Nilaparvata lugens)
as §1, with “compounds was” for “compounds were”, “acetone:water (vol:vol)” for “acetone:water (vol:vol),”

[6] = test system: Dichromothrips corbetti; experiment: Orchid thrips (Dichromothrips corbetti) floral-immersion test; conditions: 72 h, read-out: mortality in comparison with untreated controls
Description: B.6 Orchid Thrips (Dichromothrips corbetti)
Dichromothrips corbetti adults used for bioassay were obtained from a colony maintained continuously under laboratory conditions. For testing purposes, the test compound is diluted in a 1:1 mixture of acetone:water (vol:vol), plus 0.01% vol/vol Alkamuls® EL 620 surfactant.
Thrips potency of each compound was evaluated by using a floral-immersion technique. Plastic petri dishes were used as test arenas. All petals of individual, intact orchid flowers were dipped into treatment solution and allowed to dry. Treated flowers were placed into individual petri dishes along with about 20 adult thrips. The petri dishes were then covered with lids. All test arenas were held under continuous light and a temperature of about 28° C. for duration of the assay. After 3 days, the numbers of live thrips were counted on each flower, and along inner walls of each petri dish. The percentmortality was recorded 72 hours after treatment.

CSCC(=O)/N=c1\ccccn1Cc1ccc(Cl)nc1 [E1-9, N-[1-[(6-chloro-3-pyridyl)methyl]-2-pyridylidene]-2-methylsulfanyl-acetamide]
≥ 75%: mortality at 500 ppm [1] | mortality at 2500 ppm [2] | mortality at 2500 ppm [3] | mortality at 500 ppm [4] | mortality at 500 ppm [5]

CS(=O)(=O)CC(=O)N=c1ccccn1Cc1ccc(Cl)nc1 [E1-10, N-[1-[(6-chloro-3-pyridyl)methyl]-2-pyridylidene]-2-methylsulfonyl-acetamide]
≥ 75%: mortality at 500 ppm [1] | mortality at 2500 ppm [2] | mortality at 500 ppm [6] | mortality at 2500 ppm [3] | mortality at 500 ppm [4] | mortality at 500 ppm [5]
